Consider six compounds from patent publication US20250367193A1, “BIFUNCTIONAL COMPOUNDS CONTAINING SUBSTITUTED PYRIMIDINE DERIVATIVES FOR DEGRADING CYCLIN-DEPENDENT KINASE 2 VIA UBIQUITIN PROTEASOME PATHWAY” (NIKANG THERAPEUTICS, INC., priority 2022, published 2025).

Molecules are shown by their SMILES.

In the experiment the target is T1, CDK2 (Homo sapiens, UniProt P24941).
T1 construct: High-Throughput Measurement of Cellular Endogenous CDK2; endogenous in cells; host or cells: OVCAR3
Nature of the experiment: Inhibition of CDK2: phospho-Rb (S807/811) HTRF measurement in cells. Type of experiment: cell-based. Particulars: OVCAR3 cells (CDK2 dependent cell line), 24 h compound treatment, read-out: pRb. As for the experimental part: Phosphorylation of RB protein at S807/811 are measured using HTRF phospho-RB cellular kits (Cat #64RBS807PEG) from Cisbio.
On Day 1, OVCAR3 (CDK2 dependent cell line) cells are seeded into 96-well tissue-culture treated plates at 20,000 cells/well in 200 μL and incubated overnight at 37° C. in CO2 atmosphere. On Day 2, the cells are treated with test compounds at concentrations from 0.3 to 10,000 nM using HP D300 digital dispenser. Twenty-four hours after compound treatment, cell culture media is removed by flicking the plate and tapping the plate against clean paper towel. Immediately 30 μL 1× lysis buffer is supplemented from the kit and the plate is incubated at room temperature on shaker for 30 min. After homogenization by pipetting up and down, 8 μL cell lysate from 96-well cell culture plate is transferred to 384-well small volume white detection plate. 2 μL premixed detection solution is added and the plate was covered with sealer. To prepare the detection solution, d2 conjugated-phospho-RB antibody and Eu-cryptate conjugated phosphor-RB antibody are diluted into detection buffer following manufacturer's instruction. Detection plates are incubated for 4 h at room temperature and read on ClarioStar (BMG Labtech) in TR-FRET mode ([…]). The TR-FRET ratio (665 nM/620 nM) is plotted against the compound concentration and normalized to DMSO controls. Half maximal inhibition concentration (IC50) values are calculated with a four-parameter logistic fit using GraphPad Prism (version 8; La Jolla, CA).

Turning to `Cn1nc(N2CCC(=O)NC2=O)c2ccc(C3CCN(Cc4cccc(S(=O)(=O)N5CCC(Nc6ncc(C(F)(F)F)c(O[C@@H]7CCC[C@@H]7O)n6)CC5)c4)CC3)cc21` (racemic) [Cpd 3, Rac-1-(6-(1-(3-((4-((4-(((1R,2S)-2-hydroxy-cyclopentyl)oxy)-5-(trifluoro-methyl)-pyrimidin-2-yl)amino)piperidin-1-yl)-sulfonyl)benzyl)piperidin-4-yl)-1-methyl-1H-indazol-3-yl)dihydropyrimidine-2,4(1H,3H)-dione], the IC50 lay in the range of 28 to 100 nM. Next, `Cn1nc(N2CCC(=O)NC2=O)c2ccc(C3CCN(CC4CCN(S(=O)(=O)c5ccc(Nc6ncc(C(F)(F)F)c(O[C@H]7CCC[C@H]7O)n6)cc5)CC4)CC3)cc21` (racemic) [compound 6, Rac-1-(6-(1-((1-((4-((4-(((1S,2R)-2-hydroxy-cyclopentyl)oxy)-5-(trifluoromethyl)-pyrimidin-2-yl)amino)phenyl)-sulfonyl)-piperidin-4-yl)methyl)piperidin-4-yl)-1-methyl-1H-indazol-3-yl)dihydropyrimidine-2,4(1H,3H)-dione]: 100 to 500 nM. For `Cn1nc(N2CCC(=O)NC2=O)c2ccc(C3CCN(Cc4cccc(S(=O)(=O)N5CCC(Nc6ncc(C(F)(F)F)c(N7CCCCC7)n6)CC5)c4)CC3)cc21` [Cpd 1, 1-(1-methyl-6-(1-(3-((4-((4-(piperidin-1-yl)-5-(trifluoromethyl)pyrimidin-2-yl)amino)-piperidin-1-yl)sulfonyl)benzyl)-piperidin-4-yl)-1H-indazol-3-yl)dihydropyrimidine-2,4(1H,3H)-dione] the value was 100 to 500 nM.

For `Cn1nc(N2CCC(=O)NC2=O)c2ccc(C3CCN(Cc4cccc(S(=O)(=O)N5CCC(Nc6ncc(C(F)(F)F)c(OC7CCCC7)n6)CC5)c4)CC3)cc21` [Cpd 2, 1-(6-(1-(3-((4-((4-(cyclopentyloxy)-5-(trifluoromethyl)pyrimidin-2-yl)amino)-piperidin-1-yl)sulfonyl)benzyl)-piperidin-4-yl)-1-methyl-1H-indazol-3-yl)dihydro-pyrimidine-2,4(1H,3H)-dione], the IC50 fell in the range of 28 to 100 nM.

Take `Cn1nc(N2CCC(=O)NC2=O)c2ccc(C3CCN(Cc4cccc(S(=O)(=O)N5CCC(Nc6ncc(C(F)(F)F)c(N7CCCC7)n6)CC5)c4)CC3)cc21` [Cpd 4, 1-(1-methyl-6-(1-(3-((4-((4-(pyrrolidin-1-yl)-5-(trifluoromethyl)pyrimidin-2-yl)amino)-piperidin-1-yl)sulfonyl)benzyl)piperidin-4-yl)-1H-indazol-3-yl)dihydropyrimidine-2,4(1H,3H)-dione]: the IC50 was in the range of 100 to 500 nM. For `Cn1nc(N2CCC(=O)NC2=O)c2ccc(C3CCN(Cc4cccc(S(=O)(=O)N5CCC(Nc6ncc(C(F)(F)F)c(OC7CCC7)n6)CC5)c4)CC3)cc21` [Cpd 5, 1-(6-(1-(3-((4-((4-cyclobutoxy-5-(trifluoro-methyl)pyrimidin-2-yl)amino)piperidin-1-yl)sulfonyl)benzyl)piperidin-4-yl)-1-methyl-1H-indazol-3-yl)dihydropyrimidine-2,4(1H,3H)-dione] the value was 28 to 100 nM.
